Results taken from BindingDB's records for patent US12435087 (Cellarity, 2025).

Assays:
[1] = biological target: T1, DCN1-like protein 1 (Homo sapiens, UniProt Q96GG9); experiment: TR-FRET Assay (1 hour)
Protocol: (§1) The DCN1 protein was biotinylated (EZ sulfo-NHS-LC-biotin; Thermofisher) for labeling with streptavidin terbium (Tb) cryptate in the reaction. The probe was changed to a non-covalent DCN1 inhibitor labeled with carboxyfluorescein (FAM; Zhou et al., Nat Commun. 2017; 8: 1150. Doi: 10.1038/s41467-017-01243-7). Buffer conditions were modified to enhance protein stability by exchanging Tween20 for TritonX and increasing NaCl to 200 mM. The compounds were screened against 5 nM DCN1 and 20 nM FAM-probe or 0.31 nM DCN1 and 900 nM total probe (100 nM FAM-labeled plus 800 nM unlabeled). The TR-FRET ratio between Tb-DCN1 and the FAM-labeled probe was measured in a 384-well opti-plate (Perkin Elmer) using a plate reader (BMG) at 1 hour after treatment with compound (final DMSO concentration of 0.1%).

[2] = biological target: T1, DCN1-like protein 1; experiment: TR-FRET Assay (24 hour)
Protocol: as §1, with “24 hrs” for “1 hour”

T1 sequence (Q96GG9 whole entry): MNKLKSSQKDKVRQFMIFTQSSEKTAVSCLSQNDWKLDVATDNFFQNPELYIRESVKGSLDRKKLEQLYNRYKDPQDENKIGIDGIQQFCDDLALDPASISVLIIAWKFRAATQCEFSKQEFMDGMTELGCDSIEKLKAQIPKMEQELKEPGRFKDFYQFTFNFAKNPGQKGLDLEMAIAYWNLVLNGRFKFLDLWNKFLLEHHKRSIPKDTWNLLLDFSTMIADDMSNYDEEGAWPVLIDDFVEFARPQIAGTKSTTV

Compound | IC50 [1] | IC50 [2]
C=CS(=O)(=O)Nc1cccc([C@H]2c3c(C)nn(-c4ccccc4)c3N(CC)C(=O)[C@@H]2NC(=O)c2cccc(C(F)(F)F)c2)c1 (racemic) [US12435087, Compound I-5] | < 0.2 µM | –
C=C(CN(C)C1COC1)C(=O)NCc1cccc([C@@H]2c3cnn(-c4ccccc4)c3N(CC)C(=O)[C@H]2NC(=O)c2ccn(C(F)(F)F)n2)c1 [US12435087, Compound I-378] | < 0.2 µM | –
C=C(CN1CCOCC1)C(=O)NCc1cccc([C@@H]2c3cnn(-c4ccccc4)c3N(CC)C(=O)[C@H]2NC(=O)c2ccn(C3CC3)n2)c1 [US12435087, Compound I-280] | < 0.2 µM | –
CCN1C(=O)[C@@H](NC(=O)c2nccc(C(F)(F)F)n2)[C@H](c2cccc(C(=O)N3C[C@H](F)C[C@H]3C#N)c2)c2cnn(-c3ccccc3)c21 [US12435087, Compound I-350] | 1 to 3 µM | –
CCN1C(=O)[C@H](NC(=O)c2cccc(C(F)(F)F)c2)[C@@H](c2cccc(NC(=O)/C=C/CN(C)C)c2)c2c(C)nn(-c3ccccc3)c21 (racemic) [US12435087, Compound I-38] | – | < 0.2 µM
C=C(CN(C)C1COC1)C(=O)N(C)Cc1cccc([C@@H]2c3cnn(-c4ccccc4)c3N(CC)C(=O)[C@H]2NC(=O)c2nccc(C(F)(F)F)n2)c1 [US12435087, Compound I-254] | – | < 0.2 µM
C=C(CN1CC2CC(C1)O2)C(=O)N(C)Cc1cccc([C@@H]2c3cnn(-c4ccccc4)c3N(CC)C(=O)[C@H]2NC(=O)c2ccn(C3CC3)n2)c1 [US12435087, Compound I-258] | – | < 0.2 µM
C=C(CN(C)C1COC1)C(=O)N(C)Cc1cccc([C@@H]2c3cnn(-c4ccccc4)c3N(CC)C(=O)[C@H]2NC(=O)c2ccn(C3CC3)n2)c1 [US12435087, Compound I-239] | – | < 0.2 µM
